Measurements published in patent US7388008B2, “Lysine based compounds” (priority 2004, dated 2008).

Test: Bioavailability: plasma concentration after single oral dose in rats
Type: in vivo, male Sprague-Dawley rats
Conditions: for AUC: 50 mg/Kg po, rat plasma; for Delivery of parent drug (PL-100, PL-337) compared to non-aqueous formulations of PL-100 and PL-337: aqueous dosing; for Delivery of parent drug (PL-100, PL-337) compared to non-aqueous formulations of PL-100 and PL-337 / Administered compound detected in the blood samples: 50 mg/kg po, rat; for Administered compound detected in the blood samples: delivered as aqueous solutions
Experimental: To assess the extent of in vivo cleavage of the phosphate group from the putative compounds, PL-100, PL-462 (based on PL-100), PL-337 and PL-515 (based on PL-337) compounds were administered po (50 mg/kg) to male Sprague-Dawley rats and their plasma concentration measured at different time intervals post-administration. All test articles (PL-100, PL-462, PL-337 and PL-515) were prepared in different vehicle at the final concentration of 25 mg/mL. The vehicle composition is as follows: (1) 20% ethanol; 50% propylene glycol; 0.05% w/v Tween 20 and water (Mix); (2) PBS buffer (PBS). Test articles were administered to male Sprague-Dawley rats at a single oral dose of 50 mg/kg. Each article was tested in three rats. Blood samples (0.2–0.3 mL) were collected at the post-dose time of 10, 20, 40, 60, 120, 180 and 360 minutes. The harvested blood was centrifuged to isolate plasma. The resulting plasma was separated and stored at −70° C. Plasma samples together with standards and quality control samples were treated to precipitate proteins, then analyzed by HPLC-MS, for the presence of PL-462, PL-100, PL-515 and PL-337.

[1] = vehicle Mix (20% ethanol; 50% propylene glycol; 0.05% w/v Tween 20 and water)
[2] = vehicle PBS, parent drug (PL-100 or PL-337) detected

AUC [1] [μg/hr * ml]	AUC [2] [μg/hr * ml]	Delivery of parent drug (PL-100, PL-337) compared to non-aqueous formulations of PL-100 and PL-337	Administered compound detected in the blood samples	SMILES
0.675				COC(=O)N[C@H](C(=O)NCCCC[C@@H](CO)N(CC(C)C)S(=O)(=O)c1ccc(N)cc1)C(c1ccccc1)c1ccccc1 [PL-100, (1S,5S)-(1-{5-[(4-amino-benzenesulfonyl)-isobutyl-amino]-6-hydroxy-hexylcarbamoyl}-2,2-diphenyl-ethyl)-carbamic acid methyl ester]
1.180				COC(=O)N[C@H](C(=O)NCCCC[C@@H](CO)N(CC(C)C)S(=O)(=O)c1ccc(N)c(F)c1)C(c1ccccc1)c1ccccc1 [PL-337, (1-{5-[(4-amino-3-fluoro-benzenesulfonyl)-isobutyl-amino]-6-hydroxy-hexylcarbamoyl}-2,2-diphenyl-ethyl)-carbamic acid methyl ester]
	0.816	equivalent to slightly superior	None	COC(=O)N[C@H](C(=O)NCCCC[C@@H](COP(=O)(O)O)N(CC(C)C)S(=O)(=O)c1ccc(N)cc1)C(c1ccccc1)c1ccccc1.[Na] [PL-462, (1S,5S)-(1-{5-[(4-amino-benzenesulfonyl)-isobutyl-amino]-6-phosphonooxy-hexylcarbamoyl}-2,2-diphenyl-ethyl)-carbamic acid methyl ester sodium salt]
	1.075	equivalent to slightly superior	None	COC(=O)N[C@H](C(=O)NCCCC[C@@H](COP(=O)(O)O)N(CC(C)C)S(=O)(=O)c1ccc(N)c(F)c1)C(c1ccccc1)c1ccccc1 [PL-515, (1S,5S)-(1-{5-[(4-amino-3-fluoro-benzenesulfonyl)-isobutyl-amino]-6-phosphonooxy-hexylcarbamoyl}-2,2-diphenyl-ethyl)-carbamic acid methyl ester]
